How the values were obtained:
Assay in all cases: MIC of imipenem, ertapenem and meropenem
[1] = tested on: E. aerogenes; format: cell-based, Enterobacter aerogenes
[2] = tested on: P. rettgeri; format: cell-based, Providencia rettgeri
[3] = tested on: P. stuartii; format: cell-based, Providencia stuartii
[4] = tested on: K. pneumoniae; format: cell-based, Klebsiella pneumoniae

C[C@@H](O)[C@H]1C(=O)N2C(C(=O)O)=C(S[C@@H]3CN[C@H](C(=O)N(C)C)C3)[C@H](C)[C@H]12 [MEM, meropenem]
MIC ([1]; E. aerogenes 1009, TEM-24, non-carbapenemase producer): 0.016 mg/L | MIC ([1]; E. aerogenes 1085 (TEM-24)): 0.023 mg/L | MIC ([1]; E. aerogenes 1085, TEM-24, non-carbapenemase producer): 0.023 mg/L | MIC ([1]; strain E. aerogenes 1085, TEM-24, non-carbapenemase producer): 0.023 mg/L | MIC ([2]; P. rettgeri RAP (OXA-181 + OXA-1)): 2 mg/L | MIC ([2]; P. rettgeri RAP, OXA-181 + OXA-1): 2 mg/L | MIC ([2]; strain P. rettgeri RAP, OXA-181 + OXA-1): 2 mg/L | MIC ([3]; P. stuartii NDM (NDM-1 + OXA-1 + CMY-6)): 1.5 mg/L | MIC ([3]; P. stuartii PS1 (NDM-1 + CMY-6 + OXA-1)): 1.5 mg/L | MIC ([3]; P. stuartii PS1, NDM-1 + CMY-6 + OXA-1): 1.5 mg/L | MIC ([3]; strain P. stuartii PS1, NDM-1 + CMY-6 + OXA-1): 1.5 mg/L | MIC ([4]; K. pneumoniae 1 OMA (NDM-1 + CTX-M-15 + OXA-1 + OXA-9)): >32 mg/L | MIC ([4]; K. pneumoniae 2 OLA (NDM-1 + OXA-1)): 2 mg/L | MIC ([4]; K. pneumoniae 7 AFR (NDM-1 + OXA-1 + CTX-M-15 + CMY-6 + TEM-1)): >32 mg/L | MIC ([4]; K. pneumoniae 7AFR, NDM-1 + TEM-1 + CTX-M-15 + CMY-6 + OXA-1): >32 mg/L | MIC ([4]; K. pneumoniae 0227, SHV-1, non-carbapenemase producer): 0.016 mg/L | MIC ([4]; K. pneumoniae 588, KPC-2 + TEM-1 + SHV-11 + OXA-9): 16 mg/L | MIC ([4]; K. pneumoniae 1022, SHV-2a + SHV-28, non-carbapenemase producer): 0.023 mg/L | MIC ([4]; K. pneumoniae 1025 (CTX-M-14 + TEM-1 + SHV-11)): 0.016 mg/L | MIC ([4]; K. pneumoniae 1025, CTX-M-14 + TEM-1 + SHV-11, non-carbapenemase producer): 0.016 mg/L | MIC ([4]; K. pneumoniae 2303, KPC-2 + SHV-11): >32 mg/L | MIC ([4]; K. pneumoniae 6642 GEN (NDM-1 + CTX-M-15 + OXA-1 + OXA-10)): 3 mg/L | MIC ([4]; K. pneumoniae 6642 GEN, NDM-1 + CTX-M-15 + OXA-1 + OXA-10): 3 mg/L | MIC ([4]; K. pneumoniae 6759 GEN (NDM-1 + CTX-M-15 + OXA-1 + OXA-9 + OXA-10 + CMY16)): >32 mg/L | MIC ([4]; K. pneumoniae 6759 GEN, NDM-1 + CTX-M-15 + CMY-16 + OXA-1 + OXA-9 + OXA-10): >32 mg/L | MIC ([4]; K. pneumoniae 7725 (SHV-1)): 0.032 mg/L | MIC ([4]; K. pneumoniae 7725, SHV-1, non-carbapenemase producer): 0.032 mg/L | MIC ([4]; K. pneumoniae 10112, CTX-M-15 + TEM-1 + SHV-11, non-carbapenemase producer): 0.023 mg/L | MIC ([4]; K. pneumoniae 0404020, VIM-1+ SHV-5): >32 mg/L | MIC ([4]; K. pneumoniae 0404024, VIM-1): >32 mg/L | MIC ([4]; K. pneumoniae 0511135, VIM-1+ SHV-12): >32 mg/L | MIC ([4]; K. pneumoniae 648236 (SHV-2a)): 0.38 mg/L | MIC ([4]; K. pneumoniae 648236, SHV-2a, non-carbapenemase producer, porin deficiency): 0.38 mg/L | MIC ([4]; K. pneumoniae 0709121, IMP-1): 1 mg/L | MIC ([4]; K. pneumoniae 0709124, IMP-1 + TEM-15): 2 mg/L | MIC ([4]; K. pneumoniae 0709125, IMP-1 + TEM-1 + SHV-12): 2 mg/L | MIC ([4]; K. pneumoniae 0709127, IMP-1 + TEM-1): 1 mg/L | MIC ([4]; K. pneumoniae A28006, KPC-2 + TEM-1 + CTX-M-2 + SHV-11): 32 mg/L | MIC ([4]; K. pneumoniae A33504, KPC-2 + TEM-1 + SHV-11 + CTX-M-2 + OXA-9): >32 mg/L | MIC ([4]; K. pneumoniae AEL, OXA-48 + CTX-M-15 + SHV-28 + OXA-1): 0.38 mg/L | MIC ([4]; K. pneumoniae ALE (CTX-M-15 + SHV-1)): 4 mg/L | MIC ([4]; K. pneumoniae ALE, CTX-M-15 + SHV-1, non-carbapenemase producer, porin deficiency): 4 mg/L | MIC ([4]; K. pneumoniae AMS (OXA-48 + TEM-1 + CTX-M-15 + OXA-1)): 0.38 mg/L | MIC ([4]; K. pneumoniae AMS, OXA-48 + TEM-1 + CTX-M-15 + OXA-1): 0.38 mg/L | MIC ([4]; K. pneumoniae BAJ (OXA-48 + TEM-1 + CTX-M-15 + SHV-28)): 0.38 mg/L | MIC ([4]; K. pneumoniae BAJ, OXA-48 + TEM-1 + CTX-M-15 + SHV-28): 0.38 mg/L | MIC ([4]; K. pneumoniae BED (CTX-M-15 + TEM-1 + SHV-1; Table 8: SHV-11)): 4 mg/L | MIC ([4]; K. pneumoniae BED, CTX-M-15 + TEM-1 + SHV-11, non-carbapenemase producer, porin deficiency): 4 mg/L | MIC ([4]; K. pneumoniae BEL (OXA-48)): 1 mg/L | MIC ([4]; K. pneumoniae BEL, OXA-48): 1 mg/L | MIC ([4]; K. pneumoniae BEN (OXA-48 + TEM-1 + CTX-M-15 + SHV-28)): 0.25 mg/L | MIC ([4]; K. pneumoniae BEN, OXA-48 + TEM-1 + CTX-M-15 + SHV-28): 0.25 mg/L | MIC ([4]; K. pneumoniae BER (TEM-1 + SHV-28)): 1 mg/L | MIC ([4]; K. pneumoniae BER, SHV-28 + TEM-1, non-carbapenemase producer, porin deficiency): 1 mg/L | MIC ([4]; K. pneumoniae BEY (OXA-48 + CTX-M-15 + TEM-1)): 0.38 mg/L | MIC ([4]; K. pneumoniae BEY, OXA-48 + TEM-1 + CTX-M-15): 0.38 mg/L | MIC ([4]; K. pneumoniae BIC (OXA-48)): 0.5 mg/L | MIC ([4]; K. pneumoniae BIC, OXA-48): 0.5 mg/L | MIC ([4]; K. pneumoniae BOU, OXA-48): 0.25 mg/L | MIC ([4]; K. pneumoniae CHA (OXA-48 + TEM-1)): 0.5 mg/L | MIC ([4]; K. pneumoniae CHA, OXA-48 + TEM-1): 0.5 mg/L | MIC ([4]; K. pneumoniae COL (KPC-2 + TEM-1 + SHV-1 + CTX-M-15)): 32 mg/L | MIC ([4]; K. pneumoniae COO (CTX-M-15 + SHV28)): 4 mg/L | MIC ([4]; K. pneumoniae COO, CTX-M-15 + SHV-28, non-carbapenemase producer, porin deficiency): 4 mg/L | MIC ([4]; K. pneumoniae DAL (OXA-48 + CTX-M-15 + TEM-1)): 0.38 mg/L | MIC ([4]; K. pneumoniae DAL, OXA-48 + TEM-1 + CTX-M-15): 0.38 mg/L | MIC ([4]; K. pneumoniae DIA, OXA-48 + TEM-1b + CTX-M-15 + SHV-11 + OXA-1): >32 mg/L | MIC ([4]; K. pneumoniae DUW, OXA-48 + TEM-1 + CTX-M-15 + SHV-28): 32 mg/L | MIC ([4]; K. pneumoniae EGY (OXA-48 + CTX-M-15)): 2 mg/L | MIC ([4]; K. pneumoniae EGY, OXA-48 + CTX-M-15): 2 mg/L | MIC ([4]; K. pneumoniae ELK (OXA-48 + TEM-1 + CTX-M-15 + SHV-11)): 0.38 mg/L | MIC ([4]; K. pneumoniae ELK, OXA-48 + TEM-1 + CTX-M-15 + SHV-11): 0.38 mg/L | MIC ([4]; K. pneumoniae ENN, VIM-1+ SHV-5): 0.38 mg/L | MIC ([4]; K. pneumoniae FOS (CTX-M-15 + TEM-1 + SHV-11)): >32 mg/L | MIC ([4]; K. pneumoniae FOS, CTX-M-15 + TEM-1 + SHV-11, non-carbapenemase producer, porin deficiency): >32 mg/L | MIC ([4]; K. pneumoniae GES, KPC-2 + TEM-1 + SHV-11): 1.5 mg/L | MIC ([4]; K. pneumoniae HOL (OXA-181 + CTX-M-15)): 1 mg/L | MIC ([4]; K. pneumoniae HOL, OXA-181 + CTX-M-15): 1 mg/L | MIC ([4]; K. pneumoniae HPA, OXA-48 + TEM-1 + CTX-M-15 + OXA-1): 12 mg/L
